Test results taken from paper PMC5860131, “Identification of natural products as novel ligands for the human 5-HT2C receptor” (Biophysics Reports, 2018).

Assays:
5-HT2C receptor = target: T1, 5-HT2C receptor (Homo sapiens, UniProt P28335); experiment: Ca2+ mobilization assay (Fluo-4, FLIPR), HEK 293T cells stably transfected with 5-HT2C; type: cell-based
T1 construct: expressed in transfected cells; host or cells: HEK 293T, stably transfected
T1 sequence (P28335 33-458): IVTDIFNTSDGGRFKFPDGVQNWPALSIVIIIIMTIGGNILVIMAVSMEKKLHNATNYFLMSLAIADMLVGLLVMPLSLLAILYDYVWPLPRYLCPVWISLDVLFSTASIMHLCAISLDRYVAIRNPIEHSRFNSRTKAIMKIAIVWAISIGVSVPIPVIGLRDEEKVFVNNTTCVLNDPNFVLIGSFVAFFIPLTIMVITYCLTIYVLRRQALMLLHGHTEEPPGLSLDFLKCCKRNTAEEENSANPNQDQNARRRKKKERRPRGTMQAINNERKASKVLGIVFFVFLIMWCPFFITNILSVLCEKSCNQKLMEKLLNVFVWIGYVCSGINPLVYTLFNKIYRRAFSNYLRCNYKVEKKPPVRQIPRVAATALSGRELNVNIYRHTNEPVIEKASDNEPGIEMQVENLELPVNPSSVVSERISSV
From the text: The 5-HT2C receptor mainly couples to Gαq proteins. The activated 5-HT2C receptor transmits the signals from the extracellular to the intercellular side using DAG/IP3 (diacyl glycerol/inositol 1,4,5-trisphosphate) as its second massagers (Hannon and Hoyer [2008]). IP3 stimulates the endoplasmic reticulum to release calcium ions into the cytoplasm, which causes the increase of calcium concentration in cytosol. Therefore, calcium mobilization assay is commonly applied to understand how unknown small molecule ligands of 5-HT2C receptor modulate cellular signal transductions. In this case, Fluo-4 Direct dye was used as a fluorescence indicator to detect calcium flux in G protein-coupled receptor expressed cells. The fold of maximum response over average of basal reading is plotted against compound concentration to determine the potency of the compounds (Fig. 3). […]. HEK 293T cells stably transfected with 5-HT2A/2B/2C receptor were seeded in 384-well plates at a density of 15,000 cells/well in DMEM containing 1% dialyzed FBS 8 h before the calcium flux assay. After removing medium, cells were then incubated (20 μl/well) for 1 h at 37 °C with Fluo-4 Direct dye (Invitrogen) reconstituted in FLIPR buffer (1× HBSS, 2.5 mmol/L probenecid, and 20 mmol/L HEPES, pH 7.4). After the dye loaded, cells were placed in a FLIPR^TETRA fluorescence imaging plate reader (Molecular Devices); drug dilutions, prepared at 3× final concentration in FLIPR buffer and aliquotted into 384-well plates, were also added to the FLIPR^TETRA. The fluidics module and plate reader of the FLIPR^TETRA were programmed to read baseline fluorescence for 10 s (1 read/s), then to add 10 μl of drug/well and to read for 6 min (1 read/s). Fluorescence in each well was normalized to the average of the first 10 reads (i.e., baseline fluorescence). Then, the maximum-fold increase, which occurred within 60 s after drug addition, over baseline fluorescence elicited by vehicle or drug was determined. […]

[1] = target: T2, 5-HT2C receptor L209^ECL2F (Homo sapiens, UniProt P28335, DEL255-298/G251D/H250E/H252N/INS299[…]/L209F/L248D/M247A/M300L/T253W); experiment: Affinity MS assay, 5-HT2C mutant L209F; type: binding; conditions: n = 2
T2 construct: the N- and C-terminals were truncated by 39 and 65 residues, respectively; PreScission protease site + 10× His (C); made in house
From the text: Based on the binding poses predicted by molecular docking, single-point mutations were designed to test their impact on ligand binding. Mutations of several residues include the highly conserved Asp134^3.32, which is known to cause 5-HT1B or 5-HT2B receptors to abolish the monoamine ligand binding as reported in the literature (Wang et al. [2013]). In this study, residues forming hydrophobic interactions with the substitution groups on the aporphine scaffold of (–)-crebanine (1) were selected for mutation as well and they are Thr139^3.37, Gly218^5.42, Ala222^5.46, and Leu209^ECL2. Effects of those mutations were tested with the CPM assay and the affinity MS assay (Table 2). In the affinity MS experiment, relative ligand-binding capacity (represented by binding %) to different mutants and the wild-type receptor was compared. Among the six mutations tested, five of them reduced the binding of (–)-crebanine (1) by more than 40% relative to binding to the wild-type receptor, displaying the importance of hydrophobic interactions. […]
Four experimental replicates were prepared for each pair of the test ligand and the negative control. […] S/C ratios refer to the ratio of MS response of a specific ligand detected in the 5-HT2C incubation sample versus the control. […]

T2 sequence (P28335 with tags, fused parts or gaps with the stated changes): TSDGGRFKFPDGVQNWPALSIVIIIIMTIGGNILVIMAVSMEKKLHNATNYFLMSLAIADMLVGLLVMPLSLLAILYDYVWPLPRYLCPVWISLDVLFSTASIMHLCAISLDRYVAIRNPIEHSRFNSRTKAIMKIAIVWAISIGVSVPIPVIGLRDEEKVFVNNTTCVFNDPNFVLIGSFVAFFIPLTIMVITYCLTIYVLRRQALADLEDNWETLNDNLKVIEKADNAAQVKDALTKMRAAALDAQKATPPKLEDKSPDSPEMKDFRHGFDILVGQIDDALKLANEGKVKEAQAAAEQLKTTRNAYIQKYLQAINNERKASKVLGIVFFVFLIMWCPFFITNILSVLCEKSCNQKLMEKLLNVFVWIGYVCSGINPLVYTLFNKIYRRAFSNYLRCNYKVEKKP

COc1ccc2c(c1OC)C[C@@H]1c3c(cc4c(c3-2)OCO4)CCN1C [Compound 1, (–)-crebanine]
IC50 (5-HT2C receptor): 149 nM | (–)-Crebanine/MS relative ligand binding [1]: 13.22%
